Data published in publication PMC6274539, “Photoactivatable Caged Prodrugs of VEGFR-2 Kinase Inhibitors” (Molecules, 2016).
Where two headings read alike, the source gives them in different places.

Columns and labels:
[1] = UV stability at 365 nm in DMSO (HPLC, LC-MS); conditions: 1 mM in DMSO, 5.4 W, up to 10 min
Procedure: HPLC and LC-MS analysis were used for content determination.
Aliquots were diluted 1:10 with methanol and analyzed by HPLC.

[2] = test system: PC-3 cells; experiment: cellular uptake by fluorescence microscopy (cell staining); assay type: cell-based; conditions: live PC-3 cells, 10 µM, 30 min, autofluorescence
Procedure: Next, we investigated the cellular bioavailability of the caged prodrugs. For this purpose, we used the autofluorescence of the carbazole 3 and its caged derivative 5. The emission spectra of both compounds are shown in the Supplementary Figure S6. The fluorescence microscopy was used to explore the uptake of the compounds into the cells. Live PC-3 cells were stained with 10 µM solutions of 3 or 5, and then fixed with formalin. Subsequently, the cell nuclei were counterstained with 1 µg/mL DAPI.
PC-3 cells were stained with the carbazole 3 and its caged derivative 5. For this purpose, the cells were seeded to give 15,000 cells in 50 µL per well into 96-well half area microplate (Ref.: 675986, Greiner bio-one, Kremsmünster, Austria). The plate was incubated for 48 h at 37 °C in a humidified atmosphere with 5% CO2. Compounds 3 and 5 were dissolved in DMEM:Hams F12 (1:1) medium with 5% FCS and added to the cells to give the endconcentration of 10 µM, respectively. The cells were incubated with the compounds for 30 min at 37 °C. After that, the cells were washed twice with PBS and fixed with 3.3% formalin for 15 min. […] After 30 min incubation at 37 °C, the cells were washed with PBS and the fluorescence images were taken at the ImageXpress® Micro XL (Molecular Devices, Sunnyvale CA, USA). […]

[3] = test system: PC-3 cells; experiment: cellular growth (proliferation) assay, resazurin; assay type: cell-based
Procedure: Growth assays on VEGFR-2 dependent PC-3 cells were performed.
PC-3 cells were purchased from CLS Cell Lines Service GmbH (Eppelheim, Germany). The cells were grown in DMEM:Hams F12 (1:1) medium with 5% FCS. PC-3 cells were incubated in a 5% CO2 humidified atmosphere at 37 °C.
The cells were grown in cell flasks until approximately 90% confluence and then seeded to give 13000 cells in 100 μL per well into 96-well CulturePlates™ (Perkin Elmer). In addition to the test plates, one plate was prepared for reference measurement at day zero. All plates were incubated for 24 h at 37 °C in a humidified atmosphere with 5% CO2. Compounds 1, 3, 4, and 5 were dissolved in 100% DMSO (v/v) and added to the test plates. The final DMSO concentration in the assay was 0.5% (v/v). Viability of the cells in the day zero control plates were determined on the same day without adding any compounds. For viability measurement the resazurin assay was used. The shift in the fluorescence signal was measured at the LS55 Fluorescence spectrometer (Perkin Elmer). For the photoactivation experiments the test plates were irradiated at 365 nm for 5 min (LED source: 8× Nichia NCSU033B, Sahlmann Photochemical Solutions, 50%, 1.1 kW/m^2). Test plates were incubated for further 48 h and cell viability was defined as described above. Measured raw data was converted into percent of cell growth by using the high control (0.5% DMSO (v/v) without compound) and the day zero control. For dose-response studies, 11 different concentrations of compounds were tested in duplicates. IC50 values were calculated using the 4-parameter logarithmic fit option of GraphPad Prism 5.

[4] = target: IR-HIS (Homo sapiens, UniProt P06213); experiment: kinase profiling, radioactive filter binding assay; assay type: biochemical; conditions: 0.1 µM compound, assay duplicates; read-out: residual activity of IR-HIS, mean percentage activity
IR-HIS, sequence (P06213 28-1382): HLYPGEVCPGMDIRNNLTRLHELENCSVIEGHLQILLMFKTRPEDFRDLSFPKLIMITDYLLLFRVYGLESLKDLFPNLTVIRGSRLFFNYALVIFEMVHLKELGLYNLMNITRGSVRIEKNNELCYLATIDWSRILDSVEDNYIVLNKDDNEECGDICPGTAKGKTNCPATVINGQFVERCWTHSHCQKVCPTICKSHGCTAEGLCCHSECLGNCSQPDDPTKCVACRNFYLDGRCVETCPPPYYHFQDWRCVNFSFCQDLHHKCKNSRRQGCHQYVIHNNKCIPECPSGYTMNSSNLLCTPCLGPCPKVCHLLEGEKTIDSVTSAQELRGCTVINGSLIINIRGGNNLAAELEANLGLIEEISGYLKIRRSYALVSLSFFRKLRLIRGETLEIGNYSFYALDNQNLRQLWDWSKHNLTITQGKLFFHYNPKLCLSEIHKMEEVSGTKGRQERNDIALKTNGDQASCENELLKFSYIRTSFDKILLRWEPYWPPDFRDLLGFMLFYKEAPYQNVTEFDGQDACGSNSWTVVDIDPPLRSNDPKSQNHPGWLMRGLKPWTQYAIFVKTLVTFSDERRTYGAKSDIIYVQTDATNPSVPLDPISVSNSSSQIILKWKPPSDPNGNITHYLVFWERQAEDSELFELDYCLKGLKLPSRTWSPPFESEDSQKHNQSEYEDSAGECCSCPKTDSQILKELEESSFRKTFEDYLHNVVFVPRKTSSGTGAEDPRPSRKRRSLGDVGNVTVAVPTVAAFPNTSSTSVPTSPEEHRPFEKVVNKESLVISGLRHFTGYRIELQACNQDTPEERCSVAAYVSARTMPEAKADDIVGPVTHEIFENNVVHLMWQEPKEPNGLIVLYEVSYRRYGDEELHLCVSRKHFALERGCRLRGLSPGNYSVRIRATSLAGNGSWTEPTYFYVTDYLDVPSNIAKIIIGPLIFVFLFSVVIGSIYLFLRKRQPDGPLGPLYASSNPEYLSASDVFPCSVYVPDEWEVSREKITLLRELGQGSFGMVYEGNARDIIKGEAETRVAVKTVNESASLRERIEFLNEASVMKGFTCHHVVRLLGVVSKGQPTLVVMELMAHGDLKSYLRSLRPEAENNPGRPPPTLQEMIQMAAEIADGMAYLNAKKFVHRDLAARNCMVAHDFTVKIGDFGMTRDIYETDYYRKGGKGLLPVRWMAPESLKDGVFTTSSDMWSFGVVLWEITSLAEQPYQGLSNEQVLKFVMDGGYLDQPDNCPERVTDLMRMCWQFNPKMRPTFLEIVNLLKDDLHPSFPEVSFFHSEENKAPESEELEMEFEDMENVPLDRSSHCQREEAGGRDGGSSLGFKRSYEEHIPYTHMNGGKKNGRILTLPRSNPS
Outline: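 Read-out is percentage residual kinase activity, averaged over duplicates with standard deviation, from a radioactive filter binding assay using 33P-labelled ATP. Test substances were applied at 0.1 µM, dissolved in DMSO.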

[5] = Homo sapiens, PC-3, light or radiation study, 48 h, no UV irradiation, cell growth after 48 h, read-out: GI50 without Irradiation
[6] = Homo sapiens, PC-3, light or radiation study, irradiated at 365 nm, 5 min, 1.1 kW/m^2, cell growth after 48 h, read-out: GI50 after Irradiation

COc1cc2c3c(c4c5ccccc5[nH]c4c2c(OC)c1OC)C(=O)NC3=O [Compound 3, 5,6,7-Trimethoxybenzo[a]pyrrolo[3,4-c]carbazole-1,3(2H,8H)-dione]
UV stability under irradiation at 365 nm [1]: quite stable | melting point: 275 °C | cellular uptake [2]: taken up into the cells, but not within the cell nuclei | GI50 [3, 5]: 0.2 µM | GI50 [3, 6]: 0.38 µM | GI50 ([3]; irradiated at 365 nm, 5 min, 1.1 kW/m^2, cell growth after 48 h, read-out: GI50 after Irradiation): 0.4 µM | remaining activity at 0.1 µM [4]: 88%

COc1cc(C2=C(c3c[nH]c4ccccc34)C(=O)NC2=O)cc(OC)c1OC [Compound 1, 3-(1H-Indol-3-yl)-4-(3,4,5-trimethoxyphenyl)-1H-pyrrole-2,5-dione]
GI50 [3, 5]: 6.4 µM | GI50 [3, 6]: 2.9 µM
